ChEMBL document CHEMBL1811891 (Bioorg Med Chem, 2011)

How the values were obtained:
[1] = test system: Human immunodeficiency virus 1; experiment: microbe, parasite or virus in culture; settings: Human immunodeficiency virus 1, Ba-L
Description: Antiviral activity against R5 tropic HIV1 Ba-L infected PBMC assessed as inhibition of viral p24 antigen expression

[2] = molecular target: C-C chemokine receptor type 5 (Homo sapiens, UniProt P51681); experiment: Antagonist activity at human CCR5 expressed in CHO cells assessed as inhibition of MIP-1alpha-induced calcium mobilization; assay type: functional, cell-based
[3] = test system: Liver microsomes; experiment: Metabolic stability in human liver microsomes assessed as compound remaining after 15 mins; assay type: ADME, Microsome; settings: 0.25 h
[4] = test system: Liver microsomes; experiment: Metabolic stability in rat liver microsomes assessed as compound remaining after 15 mins; assay type: ADME, Microsome; settings: 0.25 h
[5] = Half life in rat at 10 mg/kg, po; assay type: ADME, organism-based; parameters: dose 10 mg/kg, route oral; settings: in vivo
[6] = test system: Rattus norvegicus; experiment: Dose normalized AUC in rat at 10 mg/kg, po; assay type: ADME, organism-based; parameters: dose 10 mg/kg, route oral; settings: in vivo
[7] = Bioavailability in rat at 10 mg/kg, po; assay type: ADME, organism-based; settings: in vivo
[8] = AUC in rat at 3 mg/kg, iv; assay type: ADME, organism-based; parameters: dose 3 mg/kg, route intravenous; settings: plasma
[9] = Half life in rat at 3 mg/kg, iv; assay type: ADME, organism-based; parameters: dose 3 mg/kg, route intravenous; settings: in vivo
[10] = Clearance in rat at 3 mg/kg, iv; assay type: ADME, organism-based; parameters: dose 3 mg/kg, route intravenous; settings: in vivo
[11] = test system: Rattus norvegicus; experiment: Dose normalized Cmax in rat at 10 mg/kg, po; assay type: ADME, organism-based; parameters: dose 10 mg/kg, route oral; settings: in vivo
[12] = Cmax in rat at 10 mg/kg, po; assay type: ADME, organism-based; parameters: dose 10 mg/kg, route oral; settings: in vivo
[13] = Volume of distribution at steady state in rat at 3 mg/kg, iv; settings: in vivo
[14] = Aqueous solubility of the compound at pH 6.8; assay type: physicochemical; settings: buffer

Chain of C-C chemokine receptor type 5 (P51681 whole entry): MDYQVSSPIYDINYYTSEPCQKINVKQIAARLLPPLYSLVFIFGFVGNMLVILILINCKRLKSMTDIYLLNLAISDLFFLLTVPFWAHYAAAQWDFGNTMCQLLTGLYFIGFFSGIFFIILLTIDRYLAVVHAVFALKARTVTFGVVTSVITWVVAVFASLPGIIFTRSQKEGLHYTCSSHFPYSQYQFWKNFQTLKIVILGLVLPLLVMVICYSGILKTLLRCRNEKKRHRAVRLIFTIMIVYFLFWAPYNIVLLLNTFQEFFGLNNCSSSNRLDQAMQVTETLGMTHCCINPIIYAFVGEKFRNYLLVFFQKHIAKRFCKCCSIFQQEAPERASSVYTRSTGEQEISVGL

CCCCN1C(=O)[C@H](CC2CCCCC2)NC(=O)C12CCN(Cc1ccc(Oc3ccc(C(=O)O)cc3)cc1)CC2
IC90 [1]: 171 nM

CCCCN1C(=O)[C@@H]([C@H](O)C2CCCCC2)NC(=O)C12CCN(Cc1ccc(Oc3ccc(OC)cc3)cc1)CC2
IC50 [2]: 91 nM

CCCCN1C(=O)[C@@H]([C@H](O)C2CCCCC2)NC(=O)C12CCN(Cc1ccc(Oc3ccc(O)cc3)cc1)CC2.Cl
IC50 [2]: 68 nM | Stability [3]: 3.5% | Stability [4]: 23%

CCCCN1C(=O)[C@@H]([C@H](O)C2CCCCC2)NC(=O)C12CCN(Cc1ccc(Oc3ccc(C(N)=O)cc3)cc1)CC2.Cl
IC50 [2]: 39 nM | Stability [3]: 1.5% | Stability [4]: 19%

CCCCN1C(=O)[C@@H]([C@H](O)C2CCCCC2)NC(=O)C12CCN(Cc1ccc(Oc3ccc(C(=O)NC)cc3)cc1)CC2.Cl
IC50 [2]: 38 nM | half-life [5]: 1.22 h | AUC/dose [6]: 1296 ng·h/mL | bioavailability [7]: 10% | AUC [8]: 3780 ng·h/mL | half-life [9]: 0.46 h | clearance [10]: 12.8 mL/min/kg | Cmax/dose [11]: 333 ng/mL

CCCCN1C(=O)[C@@H]([C@H](O)C2CCCCC2)NC(=O)C12CCN(Cc1ccc(Oc3ccc(S(N)(=O)=O)cc3)cc1)CC2
IC50 [2]: 48 nM

CCCCN1C(=O)[C@@H]([C@H](O)C2CCCCC2)NC(=O)C12CCN(Cc1ccc(Oc3ccc(S(C)(=O)=O)cc3)cc1)CC2
IC50 [2]: 34 nM

CCCCN1C(=O)[C@@H]([C@H](O)C2CCCCC2)NC(=O)C12CCN(Cc1ccc(Oc3ccc(NS(C)(=O)=O)cc3)cc1)CC2.Cl
Stability [3]: 1.8% | Stability [4]: 91% | half-life [5]: 3.42 h | AUC/dose [6]: 242 ng·h/mL | bioavailability [7]: 5% | AUC [8]: 1540 ng·h/mL | half-life [9]: 2.28 h | clearance [10]: 25 mL/min/kg | Cmax/dose [11]: 50 ng/mL

CCCCN1C(=O)[C@@H]([C@H](O)C(C)C)NC(=O)C12CCN(Cc1ccc(Oc3ccc(C(=O)O)cc3)cc1)CC2.Cl
IC50 [2]: 48 nM | Stability [3]: 98% | Stability [4]: 100% | Cmax [12]: 137 ng/mL | half-life [5]: 4.5 h | bioavailability [7]: 5.9% | AUC [8]: 2310 ng·h/mL | half-life [9]: 0.22 h | clearance [10]: 21.2 mL/min/kg | IC50 [1]: 59 nM | IC90 [1]: 591 nM

CCCCN1C(=O)[C@@H]([C@H](O)C2CC2)NC(=O)C12CCN(Cc1ccc(Oc3ccc(C(=O)O)cc3)cc1)CC2.Cl
IC50 [2]: 81 nM | Stability [3]: 89% | Stability [4]: 100%

CCCCN1C(=O)[C@@H]([C@H](O)C2CCC2)NC(=O)C12CCN(Cc1ccc(Oc3ccc(C(=O)O)cc3)cc1)CC2.Cl
IC50 [2]: 25 nM | Stability [3]: 95% | Stability [4]: 100%

CCCCN1C(=O)[C@@H]([C@H](O)C2CCCC2)NC(=O)C12CCN(Cc1ccc(Oc3ccc(C(=O)O)cc3)cc1)CC2.Cl
IC50 [2]: 33 nM | Stability [3]: 93% | Stability [4]: 100%

CCCCN1C(=O)[C@@H]([C@H](O)C2CCCCCC2)NC(=O)C12CCN(Cc1ccc(Oc3ccc(C(=O)O)cc3)cc1)CC2.Cl
IC50 [2]: 32 nM | Stability [3]: 34% | Stability [4]: 59%

CCCCN1C(=O)[C@@H]([C@H](O)C2CCOCC2)NC(=O)C12CCN(Cc1ccc(Oc3ccc(C(=O)O)cc3)cc1)CC2
IC50 [2]: 120 nM

CCCCN1C(=O)[C@@H]([C@H](O)C2CCC(O)CC2)NC(=O)C12CCN(Cc1ccc(Oc3ccc(C(=O)O)cc3)cc1)CC2.Cl (stereo partly drawn)
IC50 [2]: 140 nM | Stability [3]: 100% | Stability [4]: 100%

CCCCN1C(=O)[C@@H]([C@@H](O)C2CCC(O)CC2)NC(=O)C12CCN(Cc1ccc(Oc3ccc(C(=O)O)cc3)cc1)CC2.Cl (stereo partly drawn)
IC50 [2]: 23 nM | Stability [4]: 92%

CN1C(=O)[C@@H]([C@H](O)C2CCCCC2)NC(=O)C12CCN(Cc1ccc(Oc3ccc(C(=O)O)cc3)cc1)CC2
IC50 [2]: 50 nM

CCN1C(=O)[C@@H]([C@H](O)C2CCCCC2)NC(=O)C12CCN(Cc1ccc(Oc3ccc(C(=O)O)cc3)cc1)CC2
IC50 [2]: 23 nM

CCN1C(=O)[C@@H]([C@H](O)C2CCCCC2)NC(=O)C12CCN(Cc1ccc(Oc3ccc(C(=O)NC)cc3)cc1)CC2
IC50 [2]: 20 nM

CCCN1C(=O)[C@@H]([C@H](O)C2CCCCC2)NC(=O)C12CCN(Cc1ccc(Oc3ccc(C(=O)NC)cc3)cc1)CC2.Cl
IC50 [2]: 28 nM | half-life [5]: 2 h | AUC/dose [6]: 513 ng·h/mL | bioavailability [7]: 11.2% | AUC [8]: 1370 ng·h/mL | half-life [9]: 0.72 h | clearance [10]: 35.9 mL/min/kg | Vd [13]: 1.73 L/kg | Cmax/dose [11]: 133 ng/mL

CCCCCN1C(=O)[C@@H]([C@H](O)C2CCCCC2)NC(=O)C12CCN(Cc1ccc(Oc3ccc(C(=O)NC)cc3)cc1)CC2
IC50 [2]: 68 nM

CCCCCCN1C(=O)[C@@H]([C@H](O)C2CCCCC2)NC(=O)C12CCN(Cc1ccc(Oc3ccc(C(=O)NC)cc3)cc1)CC2
IC50 [2]: 110 nM

CCCCCCCN1C(=O)[C@@H]([C@H](O)C2CCCCC2)NC(=O)C12CCN(Cc1ccc(Oc3ccc(C(=O)NC)cc3)cc1)CC2
IC50 [2]: 190 nM

CNC(=O)c1ccc(Oc2ccc(CN3CCC4(CC3)C(=O)N[C@H]([C@H](O)C3CCCCC3)C(=O)N4CCC(C)O)cc2)cc1 (stereo partly drawn)
IC50 [2]: 180 nM

CNC(=O)c1ccc(Oc2ccc(CN3CCC4(CC3)C(=O)N[C@H]([C@H](O)C3CCCCC3)C(=O)N4CCOC)cc2)cc1
IC50 [2]: 33 nM

CNC(=O)c1ccc(Oc2ccc(CN3CCC4(CC3)C(=O)N[C@H]([C@H](O)C3CCCCC3)C(=O)N4CC(F)(F)F)cc2)cc1
IC50 [2]: 46 nM

CNC(=O)c1ccc(Oc2ccc(CN3CCC4(CC3)C(=O)N[C@H]([C@H](O)C3CCCCC3)C(=O)N4CC(F)(F)C(F)(F)F)cc2)cc1
IC50 [2]: 270 nM

CCCCN1C(=O)C(C(C)C)NC(=O)C12CCN(Cc1ccc(Oc3ccccc3)cc1)CC2.Cl (stereo not drawn)
solubility [14]: 0.2 µg/mL | half-life [5]: 1.26 h | AUC/dose [6]: 96.7 ng·h/mL | bioavailability [7]: 1.3% | AUC [8]: 372 ng·h/mL | half-life [9]: 0.217 h | Cmax/dose [11]: 33.3 ng/mL

CCCCN1C(=O)C(CC2CCCCC2)NC(=O)C12CCN(Cc1ccc(Oc3ccc(C(=O)NC)cc3)cc1)CC2.Cl (stereo not drawn)
half-life [5]: 1.72 h | AUC/dose [6]: 24.8 ng·h/mL | bioavailability [7]: 1.9% | AUC [8]: 400 ng·h/mL | half-life [9]: 0.332 h | clearance [10]: 113 mL/min/kg | Cmax/dose [11]: 5.6 ng/mL

CNC(=O)c1ccc(Oc2ccc(CN3CCC4(CC3)C(=O)N[C@H]([C@H](O)C3CCCCC3)C(=O)N4CCN(C)C)cc2)cc1
IC50 [2]: 640 nM

CNC(=O)c1ccc(Oc2ccc(CN3CCC4(CC3)C(=O)N[C@H]([C@H](O)C3CCCCC3)C(=O)N4CCN)cc2)cc1
IC50 [2]: 750 nM

Cc1ccc(-c2ccc3c(c2)C=C(C(=O)Nc2ccc(C[N+](C)(C)C4CCOCC4)cc2)CCC3)cc1
IC90 [1]: 256 nM

CCCCN1C(=O)[C@@H]([C@H](O)C2CCCCC2)NC(=O)C12CCN(Cc1ccc(Oc3ccccc3)cc1)CC2.Cl
Stability [3]: 6% | Stability [4]: 18%

CCCCN1C(=O)[C@@H]([C@H](O)C(C)C)NC(=O)C12CCN(Cc1ccc(Oc3ccccc3)cc1)CC2.Cl
solubility [14]: 2.7 µg/mL

Cc1c(O)cccc1C(=O)N[C@@H](CSc1ccccc1)[C@H](O)CN1C[C@H]2CCCC[C@H]2C[C@H]1C(=O)NC(C)(C)C
IC90 [1]: 105 nM

COC[C@@H](c1ccc(C(F)(F)F)cc1)N1CCN(C2(C)CCN(C(=O)c3c(C)ncnc3C)CC2)C[C@@H]1C [VICRIVIROC]
IC90 [1]: 79 nM

Cc1cn([C@H]2C[C@H](N=[N+]=[N-])[C@@H](CO)O2)c(=O)[nH]c1=O [ZIDOVUDINE]
IC90 [1]: 48 nM
